Data published in PMC8161026, “Synthesis and Anticancer Activity Evaluation of 5-[2-Chloro-3-(4-nitrophenyl)-2-propenylidene]-4-thiazolidinones” (Molecules, 2021).

How the values were obtained:
AGS (gastric cancer) = assay: MTT cell viability assay; type: cell-based; conditions: Homo sapiens, 24 h
Summary of the method: (§1)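 MTT assay on AGS, DLD-1, MCF-7 and MDA-MB-231 cancer cell lines, with growth inhibition reported as GI50.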

[1] = system: DLD-1 (human colon cancer); assay: MTT cell viability assay; type: cell-based; conditions: DLD-1, MTT, 24 h
Summary of the method: as §1

MCF-7 (breast cancer) = assay: MTT cell viability assay; type: cell-based; conditions: Homo sapiens, MCF7; MCF-7, MTT, 24 h
Summary of the method: as §1

[2] = system: MDA-MB-231 (breast cancer); assay: MTT cell viability assay; type: cell-based; conditions: Homo sapiens; MDA-MB-231, MTT, 24 h
Summary of the method: as §1

K-562 = K-562 (Leukemia), 48 h, SRB
MOLT-4 = MOLT-4 (Leukemia), 48 h, SRB
SR = SR (Leukemia), 48 h, SRB
NCI-H23 = NCI-H23 (Non-Small Cell Lung Cancer), 48 h, SRB
NCI-H460 [3] = conditions: NCI-H460 (Non-Small Cell Lung Cancer), 48 h, SRB
SNB-75 = SNB-75 (CNS Cancer), 48 h, SRB
LOX IMVI [4] = conditions: LOX IMVI (Melanoma), 48 h, SRB
T-47D = T-47D (Breast Cancer), 48 h, SRB
A549/ATCC = assay: cells; conditions: Homo sapiens, A549, 48 h
HOP-62 = assay: cells; conditions: Homo sapiens, HOP-62, 48 h
NCI-H460 [5] = assay: cells; conditions: Homo sapiens, NCI-H460, 48 h
U251 = assay: cells; conditions: Homo sapiens, U-251, 48 h
LOX IMVI [6] = assay: cells; conditions: Homo sapiens, 48 h
SK-MEL-2 = assay: cells; conditions: Homo sapiens, SK-MEL-2, 48 h
PC-3 = assay: cells; conditions: Homo sapiens, PC-3, 48 h
HOP-92 = assay: NCI DTP 60 cell line screen, SRB
NCI-H226 = assay: NCI DTP 60 cell line screen, SRB
SF-268 = assay: NCI DTP 60 cell line screen, SRB
SF-539 = assay: NCI DTP 60 cell line screen, SRB
SK-MEL-5 = assay: NCI DTP 60 cell line screen, SRB
OVCAR-4 = assay: NCI DTP 60 cell line screen, SRB
OVCAR-5 = assay: NCI DTP 60 cell line screen, SRB
A498 = assay: NCI DTP 60 cell line screen, SRB
MCF-7 = assay: NCI DTP 60 cell line screen, SRB
NCI/ADR-Res = assay: NCI DTP 60 cell line screen, SRB; conditions: 48 h
MDA-MB-231/ATCC = assay: NCI DTP 60 cell line screen, SRB

Work on `O=C1NC(=S)S/C1=C\C(Cl)=C\c1ccc([N+](=O)[O-])cc1` [Compound 2b, 5-[(Z,2Z)-2-Chloro-3-(4-nitrophenyl)-2-propenylidene]-2-thioxo-4-thiazolidinone] yielded a GI50 (AGS (gastric cancer)) of 7.86 µM, a GI50 [1] of 8.39 µM and a GI50 (MCF-7 (breast cancer)) of 4.79 µM. For the same compound, the GI50 [2] was 10.6 µM, the TGI (K-562) was 42.5 µM and the TGI (MOLT-4) was 14.2 µM. It also gave a TGI (SR) of 7.96 µM, a TGI (NCI-H23) of 13.4 µM and a TGI (NCI-H460 [3]) of 18.6 µM. The TGI (SNB-75) was 23.5 µM, the TGI (LOX IMVI [4]) was 15.4 µM and the TGI (T-47D) was over 50 µM. The GI50 (A549/ATCC) was 8.18 µM, the CC50 (A549/ATCC; read-out: LC50) was over 50 µM and the GI50 (HOP-62) was 15.4 µM. For the same compound, the CC50 (HOP-62; read-out: LC50) was over 50 µM, the GI50 (NCI-H460 [5]) was 3.95 µM and the CC50 (NCI-H460 [5]; read-out: LC50) was over 50 µM. The GI50 (U251) was 3.09 µM, the CC50 (U251; read-out: LC50) was 22.1 µM and the GI50 (LOX IMVI [6]) was 6.6 µM. It also gave a CC50 (LOX IMVI [6]; read-out: LC50) of 36 µM, a GI50 (SK-MEL-2) of 8.07 µM and a CC50 (SK-MEL-2; read-out: LC50) of over 50 µM. For the same compound, the GI50 (PC-3) was 4.68 µM, the CC50 (PC-3; read-out: LC50) was over 50 µM and the TGI (HOP-92; HOP-92 (Non-Small Cell Lung Cancer), 48 h, SRB) was over 50 µM. It also gave a GI50 (HOP-92; Homo sapiens, HOP-92, 48 h) of 8.48 µM, a CC50 (HOP-92; Homo sapiens, HOP-92, 48 h, read-out: LC50) of over 50 µM and a GI50 (NCI-H226; Homo sapiens, NCI-H226, 48 h) of 6.28 µM. The CC50 (NCI-H226; Homo sapiens, NCI-H226, 48 h, read-out: LC50) was over 50 µM, the TGI (NCI-H226; NCI-H226 (Non-Small Cell Lung Cancer), 48 h, SRB) was 20.0 µM and the GI50 (SF-268; Homo sapiens, SF-268, 48 h) was 5.24 µM. It also gave a CC50 (SF-268; Homo sapiens, SF-268, 48 h, read-out: LC50) of over 50 µM, a TGI (SF-268; SF-268 (CNS Cancer), 48 h, SRB) of 18.9 µM and a GI50 (SF-539; Homo sapiens, SF-539, 48 h) of 9.39 µM. It also gave a CC50 (SF-539; Homo sapiens, SF-539, 48 h, read-out: LC50) of over 50 µM, a TGI (SF-539; SF-539 (CNS Cancer), 48 h, SRB) of 23.1 µM and a GI50 (SK-MEL-5; Homo sapiens, SK-MEL-5, 48 h) of 3.82 µM. The CC50 (SK-MEL-5; Homo sapiens, SK-MEL-5, 48 h, read-out: LC50) was 24 µM, the TGI (SK-MEL-5; SK-MEL-5 (Melanoma), 48 h, SRB) was 10.6 µM and the GI50 (OVCAR-4; Homo sapiens, OVCAR-4, 48 h) was 1.95 µM. It also gave a CC50 (OVCAR-4; Homo sapiens, OVCAR-4, 48 h, read-out: LC50) of over 50 µM, a TGI (OVCAR-4; OVCAR-4 (Ovarian Cancer), 48 h, SRB) of 11.7 µM and a GI50 (OVCAR-5; Homo sapiens, OVCAR-5, 48 h) of 11.1 µM. The CC50 (OVCAR-5; Homo sapiens, OVCAR-5, 48 h, read-out: LC50) was 32.4 µM, the TGI (OVCAR-5; OVCAR-5 (Ovarian Cancer), 48 h, SRB) was 19.5 µM and the TGI (A498; A498 (Renal Cancer), 48 h, SRB) was 12.2 µM. For the same compound, the GI50 (A498; Homo sapiens, A498, 48 h) was 4.57 µM, the CC50 (A498; Homo sapiens, A498, 48 h, read-out: LC50) was 30.9 µM and the GI50 (MCF-7; Homo sapiens, MCF7, 48 h) was 2.14 µM. The CC50 (MCF-7; Homo sapiens, MCF7, 48 h, read-out: LC50) was over 50 µM, the TGI (MCF-7; MCF-7 (Breast Cancer), 48 h, SRB) was 38.0 µM and the GI50 (NCI/ADR-Res; Homo sapiens, NCI/ADR-RES) was 5.71 µM. For the same compound, the CC50 (NCI/ADR-Res; Homo sapiens, NCI/ADR-RES, read-out: LC50) was over 50 µM, the TGI (NCI/ADR-Res; NCI/ADR-Res (Breast Cancer), SRB) was 18.3 µM and the GI50 (MDA-MB-231/ATCC; Homo sapiens, MDA-MB-231, 48 h) was 8.16 µM. The CC50 (MDA-MB-231/ATCC; Homo sapiens, MDA-MB-231, 48 h, read-out: LC50) was over 50 µM and the TGI (MDA-MB-231/ATCC; MDA-MB-231/ATCC (Breast Cancer), 48 h, SRB) was 28.1 µM.
